Laboratory results reported in PMC6930599, “Novel Flavonoid Glycosides of Quercetin from Leaves and Flowers of Gaiadendron punctatum G.Don. (Violeta de Campo), used by the Saraguro Community in Southern Ecuador, Inhibit α-Glucosidase Enzyme” (Molecules, 2019).

Legend:
Type in all cases: biochemical
[1] = test system: T1, α-glucosidase (Saccharomyces cerevisiae, Sigma G5003); assay: p-nitrophenol release at […] nm, initial PNPG varied; conditions: no inhibitor; PBS pH 7.4, 37 °C; error is SE
T1 construct: gene MAL12; commercial yeast enzyme preparation (Sigma)

[2] = target: T1, α-glucosidase (Saccharomyces cerevisiae, Sigma G5003); assay: p-nitrophenol release at […] nm, microplate; conditions: PNPG (20 μL of 5 mM), PBS pH 7.4, 37 °C, 5 min pre-incubation; error is SE; read-out: α-Glucosidase IC50 (SE) (mg/mL, μM†)
[3] = target: T1, α-glucosidase (Saccharomyces cerevisiae, Sigma G5003); assay: p-nitrophenol release at […] nm, progress curves at several PNPG and inhibitor concentrations; conditions: PNPG 1-15 mM, pH 7.4, 37 °C, unreliable: b44 prints another KI, Ki unit not printed (doses in μM)

Row | Structure (SMILES) | Km [1] [µM] | IC50 [2] [µM] | Ki ([3]; non-competitive in table, competitive in abstract) | Ki ([3]; competitive in table, non-competitive in abstract)
1 | O=[N+]([O-])c1ccc(O[C@H]2O[C@H](CO)[C@@H](O)[C@H](O)[C@H]2O)cc1 [p-Nitrophenyl-α-D-glucopyranoside] | 986 | – | – | –
2 | C[C@@H]1O[C@H](OC[C@H]2O[C@@H](Oc3c(-c4ccc(O)c(O)c4)oc4cc(O)cc(O)c4c3=O)[C@H](O[C@H]3O[C@@H](C)[C@H](O)[C@@H](O)[C@H]3O)[C@@H](O)[C@@H]2O)[C@H](O)[C@H](O)[C@H]1O [compound 5, quercetin-3-O-(2,6-di-O-β,β-rhamno-pyranosyl-β-glucopyranoside)] | – | 16.9 | 12.29(1.58) | –
3 | C[C@@H]1O[C@H](O[C@@H]2[C@@H](O)[C@H](O)[C@@H](COc3ccc(-c4oc5cc(O)cc(O)c5c(=O)c4O)cc3O)O[C@H]2O)[C@H](O)[C@H](O)[C@H]1O [compound 4, quercetin-4’-O-(2-O-β-rhamno-pyranosyl-6-β-glucopyranoside)] | – | 9.66 | – | 3.92 (1.48)
4 | C[C@@H]1O[C@@H](OC[C@H]2O[C@@H](Oc3c(-c4ccc(O)cc4)oc4cc(O)cc(O)c4c3=O)[C@H](O)[C@@H](O)[C@@H]2O)[C@H](O)[C@H](O)[C@H]1O [compound 1, Nicotiflorin] | – | 159 | – | –
